Results published in US12637437B2, “Herbicidal compounds” (SYNGENTA CROP PROTECTION AG, priority 2021, dated 2026).

Experiments:
Type in all cases: in vivo
[1] = tested on: Echinochloa crus-galli (ECHCG); assay: Pre-emergence herbicidal glasshouse test, ECHCG; conditions: 125 g/h, evaluated after 13 days, five-point scale
Procedure: (§1) Seeds of a variety of test species are sown in standard soil in pots (Lolium perenne (LOLPE), Amaranthus retoflexus (AMARE), Abutilon theophrasti (ABUTH), Setaria faberi (SETFA), Echinochloa crus-galli (ECHCG), Ipomoea hederacea (IPOHE)). After cultivation for one day (pre-emergence) or after 8 days cultivation (post-emergence) under controlled conditions in a glasshouse (at 24/16° C., day/night; 14 hours light; 65% humidity), the plants are sprayed with an aqueous spray solution derived from the formulation of the technical active ingredient in acetone/water (50:50) solution containing 0.5% Tween 20 (polyoxyethelyene sorbitan monolaurate, CAS RN 9005-64-5). Compounds are applied at 125 g/h unless otherwise indicated. The test plants are then grown in a glasshouse under controlled conditions in a glasshouse (at 24/16° C., day/night; 14 hours light; 65% humidity) and watered twice daily. After 13 days for pre and post-emergence, the test is evaluated for the percentage damage caused to the plant. The biological activities are shown in the following table on a five-point scale (5=80-100%; 4=60-79%; 3=40-59%; 2=20-39%; 1=0-19%). “—” denotes not tested on this species or data not captured.

[2] = tested on: Ipomoea hederacea (IPOHE); assay: Post-emergence herbicidal glasshouse test, IPOHE; conditions: 125 g/h, evaluated after 13 days, five-point scale
Procedure: as §1

[3] = tested on: Amaranthus retoflexus (AMARE); assay: Pre-emergence herbicidal glasshouse test, AMARE; conditions: 125 g/h, evaluated after 13 days, five-point scale
Procedure: as §1

[4] = tested on: Abutilon theophrasti (ABUTH); assay: Pre-emergence herbicidal glasshouse test, ABUTH; conditions: 125 g/h, evaluated after 13 days, five-point scale
Procedure: as §1

[5] = tested on: Amaranthus retoflexus (AMARE); assay: Post-emergence herbicidal glasshouse test, AMARE; parameters: dose or concentration left out as unconfirmed; conditions: evaluated after 13 days, five-point scale
Procedure: as §1

[6] = tested on: Setaria faberi (SETFA); assay: Pre-emergence herbicidal glasshouse test, SETFA; conditions: 125 g/h, evaluated after 13 days, five-point scale
Procedure: as §1

[7] = tested on: Echinochloa crus-galli (ECHCG); assay: Post-emergence herbicidal glasshouse test, ECHCG; conditions: 125 g/h, evaluated after 13 days, five-point scale
Procedure: as §1

[8] = tested on: Setaria faberi (SETFA); assay: Post-emergence herbicidal glasshouse test, SETFA; conditions: 125 g/h, evaluated after 13 days, five-point scale
Procedure: as §1

[9] = tested on: Ipomoea hederacea (IPOHE); assay: Pre-emergence herbicidal glasshouse test, IPOHE; conditions: 125 g/h, evaluated after 13 days, five-point scale
Procedure: as §1

[10] = tested on: Abutilon theophrasti (ABUTH); assay: Post-emergence herbicidal glasshouse test, ABUTH; conditions: 125 g/h, evaluated after 13 days, five-point scale
Procedure: as §1

Row | Compound | percentage damage caused to the plant, PRE Application ECHCG [1] | percentage damage caused to the plant, POST Application IPOHE [2] | percentage damage caused to the plant, PRE Application AMARE [3] | percentage damage caused to the plant, PRE Application ABUTH [4] | percentage damage caused to the plant, POST Application AMARE [5] | percentage damage caused to the plant, PRE Application SETFA [6] | percentage damage caused to the plant, POST Application ECHCG [7] | percentage damage caused to the plant, POST Application SETFA [8] | percentage damage caused to the plant, PRE Application IPOHE [9] | percentage damage caused to the plant, POST Application ABUTH [10]
1 | CCOC(=O)Nc1c(OC(F)(F)F)ccc(C(=O)Nc2nnnn2CC)c1Cl [Compound 1.004] | 5 (5=80-100%) | 4 (4=60-79%) | 5 (5=80-100%) | 5 (5=80-100%) | 4 (4=60-79%) | 3 (3=40-59%) | 4 (4=60-79%) | 4 (4=60-79%) | 4 (4=60-79%) | 4 (4=60-79%)
2 | COC(=O)Nc1c(OC(F)F)ccc(C(=O)Nc2nnnn2C)c1Cl [Compound 1.005] | 5 (5=80-100%) | 5 (5=80-100%) | 5 (5=80-100%) | 5 (5=80-100%) | 5 (5=80-100%) | 4 (4=60-79%) | 5 (5=80-100%) | 5 (5=80-100%) | 4 (4=60-79%) | 5 (5=80-100%)
3 | COCCOC(=O)Nc1c(OC(F)(F)F)ccc(C(=O)Nc2nnnn2C)c1Cl [Compound 1.006] | 5 (5=80-100%) | 4 (4=60-79%) | 4 (4=60-79%) | 5 (5=80-100%) | 5 (5=80-100%) | 4 (4=60-79%) | 4 (4=60-79%) | 4 (4=60-79%) | 4 (4=60-79%) | 5 (5=80-100%)
4 | CC(C)OC(=O)Nc1c(OC(F)(F)F)ccc(C(=O)Nc2nnnn2C)c1Cl [Compound 1.007] | 5 (5=80-100%) | 4 (4=60-79%) | 5 (5=80-100%) | 5 (5=80-100%) | 4 (4=60-79%) | 4 (4=60-79%) | 4 (4=60-79%) | 4 (4=60-79%) | 4 (4=60-79%) | 5 (5=80-100%)
5 | CCOC(=O)Nc1c(OC(F)F)ccc(C(=O)Nc2nnnn2C)c1Cl [Compound 1.008] | 5 (5=80-100%) | 4 (4=60-79%) | 5 (5=80-100%) | 5 (5=80-100%) | 4 (4=60-79%) | 4 (4=60-79%) | 4 (4=60-79%) | 4 (4=60-79%) | 4 (4=60-79%) | 4 (4=60-79%)
6 | CCOC(=O)Nc1c(OC(F)F)ccc(C(=O)Nc2nnnn2CC)c1Cl [Compound 1.009] | 4 (4=60-79%) | 4 (4=60-79%) | 5 (5=80-100%) | 5 (5=80-100%) | 4 (4=60-79%) | 3 (3=40-59%) | 5 (5=80-100%) | 3 (3=40-59%) | 4 (4=60-79%) | 4 (4=60-79%)
7 | CCn1nnnc1NC(=O)c1ccc(OC(F)F)c(NC(=O)OC)c1Cl [Compound 1.010] | 3 (3=40-59%) | 4 (4=60-79%) | 3 (3=40-59%) | 5 (5=80-100%) | 4 (4=60-79%) | 3 (3=40-59%) | 5 (5=80-100%) | 5 (5=80-100%) | 4 (4=60-79%) | 3 (3=40-59%)
